Counter-ions that a name gives are not always drawn.
Columns and labels:
FLT3wt = FLT3wt (Homo sapiens (Human), UniProt P36888); test: Binding to FLT3 wildtype (DiscoveRx)
FLT3(D835H) = FLT3(D835H) (Homo sapiens (Human), UniProt P36888, D835H); test: Binding to FLT3(D835H) mutant (DiscoveRx)
Experimental: (§1) Selected compounds were also tested for their binding properties against FLT3 kinase mutants using suitable in vitro assays (performed according to standard assays at DiscoveRx Corporation). The compounds show strong binding to the main oncogenic mutants of the FLT3 kinase, see Table 1B.

FLT3(D835Y) = FLT3(D835Y) (Homo sapiens (Human), UniProt P36888, D835Y); test: Binding to FLT3(D835Y) mutant (DiscoveRx)
Experimental: as §1

PC3 = test: Combination study with anti-cancer agents, cell viability, PC3; details: for Effect of combination: 72 hours
Experimental: (§2) After this incubation, a cell viability assay was carried out according to the Manufacturer's instructions (CellTiter 96®AQueous Non-Radioactive Cell Proliferation Assay, Promega). The results were expressed as percentage of viable cells upon treatment with the individual drugs or the combination compared to the vehicle (DMSO) treated cells.

U-937 = test: Combination study with anti-cancer agents, cell viability, U-937; details: for Effect of combination: 72 hours
Experimental: as §2

HEL-92 = test: Combination study with anti-cancer agents, cell viability, HEL-92; details: for Effect of combination: 72 hours
Experimental: as §2

[1] = test system: Pim kinase biomarkers in MOLM16 cells; test: Pim-kinase biomarkers in MOLM16 cells; assay type: cell-based, Human; details: 0.1-2.5 μM, 4 and 24 h
Experimental: The efficacy of compound 1BI on Pim kinase-inhibition was also tested in MOLM16 cells (an acute myeloid leukemia cell line). The cells were treated with compound 1BI at concentrations of 0.1, 0.25, 0.5, 1 and 2.5 μM for 4 and 24 h. The positive controls Ref. A (SGI-1776, see above) and Ref. B (Sunitinib, see above) were used at 5 μM concentration. DMSO (Dimethyl sulfoxide) was used as a negative control. The levels of the following classical Pim-1 kinase biomarkers were assessed: c-myc, phospho-4EBP1 (Scr65, Thr37&46) and phosphorylated S6 (Scr235/236). […] The levels of a pro-apoptotic biomarker were assessed; induction of apoptosis, presented as an appearance and increased expression of cleaved form of PARP protein, was observed. Levels of tubulin were assessed as a reference loading control.

MOLM16 xenograft = MOLM16 xenograft in immunocompromised mice; assay type: in vivo; details: 100 mg/Kg QD
Text: Several compounds of the present invention have been studied in a xenograft in mice, an in vivo tumor transplantation model used to investigate the factors involved in malignant transformation, invasion and metastasis, as well as to examine response to therapy. For the purpose of acceptance of donor leukemic cells (MV4-11 or MOLM16 cells), immunocompromised mice were used, namely particularly severely compromised immunodeficient mice (NOD/scid, SCID/beige). When tumors developed size of approx. 50-200 mm^3, the compounds as indicated below in Tables 3 and 3a were administered orally every day for 2-3 weeks, in once a day (QD) or twice a day (BID) schedule. During the course of the experiment, the mice were monitored and the following two parameters were measured: the tumor growth inhibition (TGI) factor as a measure of therapeutic efficacy and the body weight change (ΔBW) factor as a measure of possible compound toxicity. The results are depicted in Tables 3 and 3a.
Additionally, compound 2A, together with other examples was tested in MOLM16 cells xenografted into immunocompromised mice.

MOLM-16 = test: Combination study with anti-cancer agents, cell viability, MOLM-16; details: for Effect of combination: MOLM-16 (Acute myeloid leukemia), 72 hours
Experimental: as §2

[2] = single agent, used as fixed concentration in combination study

SMILES: CCn1c(N2CCNCC2)nc2c([N+](=O)[O-])c(Br)c(Br)cc21 [Example 1A, 5,6-dibromo-1-ethyl-4-nitro-2-(piperazin-1-yl)-1H-1,3-benzodiazole hydrochloride]
- Kd (FLT3wt): 400 nM
- Kd (FLT3(D835H)): 120 nM
- Kd (FLT3(D835Y)): 46 nM
- ED50 value in PC3 (PC3; [2]): 2910 nM
- Effect of combination (PC3; with CAL-101, PC3 (Prostate cancer)): Synergistic
- Effect of combination (PC3; with GDC-0941, PC3 (Prostate cancer)): Synergistic/
- Effect of combination (PC3; with Rapamycin, PC3 (Prostate cancer)): Synergistic
- Effect of combination (PC3; with Wortmannin, PC3 (Prostate cancer)): Synergistic
- ED50 value in U-937 (U-937; [2]): 6640 nM
- Effect of combination (U-937; with ABT737, U937 (Histiocytic lymphoma)): Synergistic
- Effect of combination (U-937; with Obatoclax, U937 (Histiocytic lymphoma)): Synergistic
- ED50 value in HEL-92 (HEL-92; [2]): 5460 nM
- Effect of combination (HEL-92; with CP690550, HEL92 (Erythroleukemia)): Synergistic
- Effect of combination (HEL-92; with Cyt387, HEL92 (Erythroleukemia)): Synergistic
- Effect of combination (HEL-92; with Ruxolitinib, HEL92 (Erythroleukemia)): Synergistic/

SMILES: CC(C)n1c(N2CC[C@@H](N)C2)nc2c(C#N)c(Br)c(Br)cc21 [Example 1BI]
- induction of apoptosis (cleaved form of PARP protein) [1]: observed
- levels of c-myc protein [1]: downregulated
- levels of phosphorylated 4EBP1 (Ser65 and Thr37/46) [1]: downregulated
- levels of phosphorylated S6 [1]: diminished completely

SMILES: CC(C)n1c(N2CCNCC2)nc2c([N+](=O)[O-])c(Br)c(Br)cc21 [Example 2A, 5,6-dibromo-4-nitro-2-(piperazin-1-yl)-1-(propan-2-yl)-1H-1,3-benzodiazole hydrochloride]
- ΔBW (body weight change) (MOLM16 xenograft): −8.6%
- TGI (tumor growth inhibition) (MOLM16 xenograft; hydrochloride): >99%

SMILES: CC(C)n1c(C2CCNCC2)nc2c([N+](=O)[O-])c(Br)c(Br)cc21 [Example 26A, 5,6-dibromo-4-nitro-2-(piperidin-4-yl)-1-(propan-2-yl)-1H-1,3-benzodiazole]
- ED50 value in MOLM-16 (MOLM-16; [2]): 400 nM
- Effect of combination (MOLM-16; with C (Cytarabine)): Synergistic
- Effect of combination (MOLM-16; with V (Vosaroxin)): Synergistic

From patent publication US10174013B2, “Benzimidazole derivatives as kinase inhibitors” (SELVITA S.A., priority 2012, dated 2019)
